Test results from patent publication US12708630B2, “Combined therapy of 4′-thio-5-aza-2′-deoxycytidine and Venetoclax” (PINOTBIO, INC., priority 2021, dated 2026).

Tests used:
[1] = Mouse AUC used for the human PK simulation; conditions: in vivo, mice, dose of 2.0 mg/kg
Method: The 96 mg/day must be divided by 3 or 4, resulting in 24 to 32 mg/day.

SK-N-FI = assay: drug activity profiling cytotoxicity; format: cell-based; conditions: Homo sapiens; SK-N-FI cell line, CNS (Neuroblastoma); read-out: Aza-T-dCyd IC50
Method: (§1) To obtain a biomarker for Aza-T-dCyd, drug activity profiling analysis was performed to evaluate the cytotoxicity of 200 cell lines.
(§2) The drug responsiveness analysis of Aza-T-dCyd through drug activity profiling and genomic analysis of 200 cell lines confirmed the potent efficacy of Aza-T-dCyd in various solid tumors (Table 2).

MHH-PREB-1 = assay: drug activity profiling cytotoxicity; format: cell-based; conditions: Homo sapiens; MHH-PREB-1 cell line, B-cell lymphoma; read-out: Aza-T-dCyd IC50
Method: as §1, §2

PC-3 = assay: drug activity profiling cytotoxicity; format: cell-based; conditions: Homo sapiens; PC-3 cell line, Prostate; read-out: Aza-T-dCyd IC50
Method: as §1, §2

HT1376 = assay: drug activity profiling cytotoxicity; format: cell-based; conditions: Homo sapiens, HT-1376; HT1376 cell line, Bladder; read-out: Aza-T-dCyd IC50
Method: as §1, §2

C32TG = assay: drug activity profiling cytotoxicity; format: cell-based; conditions: C32TG cell line, Skin (Melanoma); read-out: Aza-T-dCyd IC50
Method: as §1, §2

DMS273 = assay: drug activity profiling cytotoxicity; format: cell-based; conditions: Homo sapiens, DMS-273; DMS273 cell line, Lung (SCLC); read-out: Aza-T-dCyd IC50
Method: as §1, §2

EM-2 = assay: drug activity profiling cytotoxicity; format: cell-based; conditions: Homo sapiens; EM-2 cell line, CML; read-out: Aza-T-dCyd IC50
Method: as §1, §2

SW872 = assay: drug activity profiling cytotoxicity; format: cell-based; conditions: Homo sapiens; SW872 cell line, Sarcoma; read-out: Aza-T-dCyd IC50
Method: as §1, §2

RS4; 11 = assay: drug activity profiling cytotoxicity; format: cell-based; conditions: Homo sapiens, 11 cell line, ALL, read-out: Aza-T-dCyd IC50
Method: as §1, §2

cytidine deaminase = assay: Degradation by cytidine deaminase
Excerpt: Decitabine/Azacytidine is susceptible to metabolism by cytidine deaminases in the body, resulting in an unstable PK profile that limits its efficacy.

[2] = test system: p15 tumor suppressor gene; assay: p15 tumor suppressor gene re-expression (RT-PCR) in MV4-11 cells; format: cell-based; conditions: for p15 mRNA re-expression: MV4-11 cell line
Method: Therefore, to determine the re-expression of tumor suppressor genes through epigenetic regulation mechanisms induced by DNMT1 inhibition upon Aza-T-dCyd (NTX-301) treatment, MV4-11 cells, an AML cell line, were treated with Aza-T-dCyd at different concentrations. […] Table 1 below compares the degree of p15 mRNA re-expression after DNMT1 inhibitor (Aza-T-dCyd/Decitabine) treatment in the MV4-11 cell line, an AML cell (fold increase from 0 nM is shown).

[3] = cited from earlier work
leukemia cell lines = assay: Growth-inhibitory activity on leukemia cell lines (GI50); format: cell-based; conditions: leukemia cell lines, 72 hours, range over cell lines; read-out: GI50 values (half maximal growth inhibitory concentrations)
Method: The growth-inhibitory activity of Aza-T-dCyd, a DNMT1 inhibitor, was measured in leukemia cell lines to determine its inhibitory effect on cell proliferation.
The growth-inhibitory activity of DNMT1 inhibitors, Aza-T-dCyd and Decitabine, was measured on leukemia cell lines to determine their effect on cell proliferation.

[4] = Pharmacokinetic evaluation in Dog; format: in vivo; conditions: for AUC(0-inf) / AUC(0-t) / Cmax / half-life / Tmax: in vivo, Dog; for half-life: read-out: T½ (converted)
Method: (§3) Aza-T-dCyd was administered orally and intravenously at various concentrations to Mice, Rats and Dogs to determine the PK profile.

[5] = test system: RRM1 protein, dCTP and dTTP; assay: RRM1 expression and pyrimidine level in cells; format: cell-based
Excerpt: The reduction of dCTP and dTTP, which act as important precursors for cancer cells to replicate DNA, can cause replication stress and generate a strong DNA damage response.

[6] = Pharmacokinetic evaluation in Rat; format: in vivo; conditions: for AUC(0-inf) / AUC(0-t) / Cmax / half-life / Tmax: in vivo, Rat; for half-life: read-out: T½ (converted)
Method: as §3

Nc1ncn([C@H]2CC(O)[C@@H](CO)S2)c(=O)n1 (some centres unmarked) [Aza-T-dCyd, 4′-thio-5-aza-2′-deoxycytidine]
AUC [1]: 369 ng·h/mL | IC50 (SK-N-FI): 2710 nM | IC50 (MHH-PREB-1): 38.9 nM | IC50 (PC-3): 441 nM | IC50 (HT1376): 3280 nM | IC50 (C32TG): 953 nM | IC50 (DMS273): 5660 nM | IC50 (EM-2): 255 nM | IC50 (SW872): 730 nM | IC50 (RS4; 11): 20.3 nM | rate of degradation by cytidine deaminase (cytidine deaminase): slower rate of degradation by cytidine deaminase | p15 mRNA re-expression ([2]; 6 nM): 1.4 ± 0.19 fold increase from 0 nM | p15 mRNA re-expression ([2]; 20 nM): 1.7 ± 0.38 fold increase from 0 nM | p15 mRNA re-expression ([2]; 60 nM): 2.6 ± 0.89 fold increase from 0 nM | p15 mRNA re-expression ([2]; 200 nM): 6.1 ± 0.86 fold increase from 0 nM | p15 upregulation compared with decitabine ([2]; MV4-11 cells): induced p15 upregulation better than decitabine | expression of p15 tumor suppressor gene (quantitative RT-PCR) ([2]; MV4-11 cells, 60 nM and 200 nM): significantly increased | p15 mRNA re-expression (RT-PCR) ([2]; MV4-11 cells, different concentrations, FIG. 14): strong re-expression of p15 mRNA | AUC value ([3]; 16 mg/day dose, NCI's Phase 1 trial): about 50 ng*h/mL | side effects ([3]; Phase 1a, solid tumors, dose approximately twice that of conventional decitabine): no significant side effects were observed | disease control rate ([3]; clinical trials, 32 mg/day dose): high disease control rate | MTD dose in Phase 1 ([3]; humans): 32 mg | GI50 (leukemia cell lines): 14 to 690 nM | oral bioavailability ([4]; dogs): orally bioavailable | AUC(0-inf) ([4]; IV 0.33 mg/kg): 1130 ng·h/mL | AUC(0-t) ([4]; IV 0.33 mg/kg): 1050 ng·h/mL | Cmax ([4]; IV 0.33 mg/kg): 552 ng/mL | half-life ([4]; IV 0.33 mg/kg): 2.25 h | AUC(0-inf) ([4]; PO 0.15 mg/kg): 439 ng·h/mL | AUC(0-t) ([4]; PO 0.15 mg/kg): 409 ng·h/mL | Cmax ([4]; PO 0.15 mg/kg): 104 ng/mL | Tmax ([4]; PO 0.15 mg/kg): 1 h | half-life ([4]; PO 0.15 mg/kg): 1.86 h | AUC(0-inf) ([4]; PO 0.33 mg/kg): 880 ng·h/mL | AUC(0-t) ([4]; PO 0.33 mg/kg): 790 ng·h/mL | Cmax ([4]; PO 0.33 mg/kg): 210 ng/mL | Tmax ([4]; PO 0.33 mg/kg): 0.67 h | half-life ([4]; PO 0.33 mg/kg): 2.34 h | AUC(0-inf) ([4]; PO 0.67 mg/kg): 1760 ng·h/mL | AUC(0-t) ([4]; PO 0.67 mg/kg): 1570 ng·h/mL | Cmax ([4]; PO 0.67 mg/kg): 463 ng/mL | Tmax ([4]; PO 0.67 mg/kg): 0.83 h | half-life ([4]; PO 0.67 mg/kg): 2.26 h | AUC(0-inf) ([4]; PO 1.5 mg/kg): 3370 ng·h/mL | AUC(0-t) ([4]; PO 1.5 mg/kg): 3200 ng·h/mL | Cmax ([4]; PO 1.5 mg/kg): 882 ng/mL | Tmax ([4]; PO 1.5 mg/kg): 0.67 h | half-life ([4]; PO 1.5 mg/kg): 1.68 h | AUC(0-inf) ([4]; PO 3.0 mg/kg): 5620 ng·h/mL | AUC(0-t) ([4]; PO 3.0 mg/kg): 5380 ng·h/mL | Cmax ([4]; PO 3.0 mg/kg): 1670 ng/mL | Tmax ([4]; PO 3.0 mg/kg): 0.417 h | half-life ([4]; PO 3.0 mg/kg): 1.65 h | RRM1 protein expression [5]: inhibited the expression of RRM1 protein | amount of dCTP and dTTP in the cells [5]: decreased the amount of dCTP and dTTP | AUC(0-inf) ([6]; IV 1 mg/kg): 1900 ng·h/mL | AUC(0-t) ([6]; IV 1 mg/kg): 1330 ng·h/mL | Cmax ([6]; IV 1 mg/kg): 444 ng/mL | half-life ([6]; IV 1 mg/kg): 5.01 h | AUC(0-inf) ([6]; PO 0.5 mg/kg): 303 ng·h/mL | AUC(0-t) ([6]; PO 0.5 mg/kg): 190 ng·h/mL | Cmax ([6]; PO 0.5 mg/kg): 33.8 ng/mL | Tmax ([6]; PO 0.5 mg/kg): 2 h | half-life ([6]; PO 0.5 mg/kg): 5.24 h | AUC(0-inf) ([6]; PO 1 mg/kg): 790 ng·h/mL | AUC(0-t) ([6]; PO 1 mg/kg): 459 ng·h/mL | Cmax ([6]; PO 1 mg/kg): 81.9 ng/mL | Tmax ([6]; PO 1 mg/kg): 1.17 h | half-life ([6]; PO 1 mg/kg): 6.3 h | AUC(0-inf) ([6]; PO 3 mg/kg): 2800 ng·h/mL | AUC(0-t) ([6]; PO 3 mg/kg): 2780 ng·h/mL | Cmax ([6]; PO 3 mg/kg): 488 ng/mL | Tmax ([6]; PO 3 mg/kg): 0.83 h | half-life ([6]; PO 3 mg/kg): 3.45 h | AUC(0-inf) ([6]; PO 10 mg/kg): 9240 ng·h/mL | AUC(0-t) ([6]; PO 10 mg/kg): 9200 ng·h/mL | Cmax ([6]; PO 10 mg/kg): 1320 ng/mL | Tmax ([6]; PO 10 mg/kg): 2 h | half-life ([6]; PO 10 mg/kg): 2.95 h | oral bioavailability ([6]; rats): orally bioavailable
